Results from publication PMC5441580, “GPR40 partial agonist MK-2305 lower fasting glucose in the Goto Kakizaki rat via suppression of endogenous glucose production” (PLoS ONE, 2017).
Where “and” joins values, the source holds several entries; their conditions need not be identical. Equal values may be shown once.

Key:
[1] = target: T1, rat GPR40 (FFAR1) (Rattus norvegicus, UniProt Q8K3T4); assay: IP1 functional assay, CHO cells stably expressing rat GPR40; format: cell-based; details: representative curve Fig 1B
T1 construct: expressed in transfected cells
Description: CHO Jump-IN cells stably expressing rat GPR40 or HEK293 Jump-IN cells stably expressing rat GPR120 were cultured in DMEM media supplemented with 10% dialyzed FBS, non-essential amino acids, penicillin/streptomycin, 10 μg/ml Blasticidin S HCL and 200 or 100 μg/ml Hygromycin B, respectively (Life Technologies). Cell stocks were maintained and grown in a sub-confluent state using standard cell culture procedures. The day before the experiment, the cells were harvested with non-enzymatic cell dissociation buffer and re-suspended in DMEM supplemented as described above at 0.15 million cells per ml. […] The seeded plates were incubated overnight at 37°C in a humidified environment.
On the day of the experiment, the growth media was removed from the assay plate by centrifugation using a BlueCatBio BlueWasher, protocol #21 “Light Dry” and 10 μl of IP1 stimulation buffer (prepared according to the Cisbio IP-one Tb HTRF kit) is added to each well. Test compounds were dissolved and serially diluted in DMSO as 200X the final assay concentration and 50 nl of the compound dilution was acoustically added to each well of the assay plates. The plates were then incubated for 60 minutes at room temperature and 10 μl of detection buffer (prepared according to the IP-one Tb HTRF kit) is added to each well of the assay plate. The plates were then incubated for one additional hour at room temperature. […] For each assay, a standard curve plate in which IP1 is titrated is also included. […] The % activation is then plotted versus the concentration of test compound and the dose response curve fitted to a standard 4-paramater non-linear regression model using a custom in-house developed software package. Maximal % activation and EC50 are then determined for each test compound.

[2] = tested on: GK rats; assay: GK rat chronic efficacy, compound in feed for 20 days; format: in vivo; details: Day 7, ~6 hrs after food removal; 10mpk; chronic study; individual animals; 10 mg/kg
[3] = tested on: GK rats; assay: as above; format: in vivo; details: for Morning (fed) Blood Glucose: Rosi 10 mpk in feed
Description: At the start of the study, fed glucose was measured at 8 A.M., and animals were selected and sorted into treatment groups based on ambient glucose (n = 10/male GK group, n = 6/male WKY control group). […] Fed blood glucose, food intake, and body weights were determined on days 0, 1, 3, 7, and 14 of study at 8 A.M. On days 7 and 14, food was removed for 5 h and plasma glucose was measured. Percent inhibitions were calculated as the percent reduction of blood glucose from the average value for vehicle controls. On day 14, blood was collected from the tail vein (20 μl) after the morning glucose measurement and after 5 h fast from a subset of n = 3 rats per treatment group to determine the ambient and fasted exposure of the compounds in circulation. The blood was stored at 4°C in 0.1 M sodium monocitrate for subsequent analysis. Animals were then re-fed their respective diet treatments. On day 20 of treatment at 8 A.M., blood glucose was measured and then animals were euthanized via CO2 asphyxiation. Blood and liver tissue were sampled, processed, and stored at -80°C until analysis.
Plasma was analyzed for triglycerides, NEFA, and HbA1C using a P Modular Roche Clinical Chemistry analyzer. Liver triglycerides were extracted as described by Bligh and Dyer, and were measured using the Infinity triglyceride assay kit (Thermo Scientific, Rockford, IL). Plasma insulin levels were measured via EIA (Mesoscale Discovery ELISA Kit, Gaithersburg MD).

[4] = plasma exposure of the compounds on day 14 of the chronic study; format: in vivo, rat; details: 10 mg/kg in feed, GK rats
Description: At the start of the study, fed glucose was measured at 8 A.M., and animals were selected and sorted into treatment groups based on ambient glucose (n = 10/male GK group, n = 6/male WKY control group). Animals were then placed on diet (LabDiet # 5001) that contained, or was devoid of, compound at the daily doses indicated. Fed blood glucose, food intake, and body weights were determined on days 0, 1, 3, 7, and 14 of study at 8 A.M. On days 7 and 14, food was removed for 5 h and plasma glucose was measured. Percent inhibitions were calculated as the percent reduction of blood glucose from the average value for vehicle controls. On day 14, blood was collected from the tail vein (20 μl) after the morning glucose measurement and after 5 h fast from a subset of n = 3 rats per treatment group to determine the ambient and fasted exposure of the compounds in circulation. The blood was stored at 4°C in 0.1 M sodium monocitrate for subsequent analysis. Animals were then re-fed their respective diet treatments. On day 20 of treatment at 8 A.M., blood glucose was measured and then animals were euthanized via CO2 asphyxiation. Blood and liver tissue were sampled, processed, and stored at -80°C until analysis.

[5] = tested on: perfused db/db mouse livers; assay: isolated perfused liver study, 13C NMR, [2-13C] pyruvate; details: data not shown
Description: To evaluate whether GPR40 partial agonist treatment produced a direct effect on hepatic glucose production, we performed isolated perfused liver studies with ^13C NMR spectroscopy in which GPR40 agonists were dosed directly to the liver ex vivo. Mouse livers were chosen instead of rat livers due to size restrictions of the perfused liver apparatus. […] A detailed description of the perfused liver technique can be found elsewhere. Briefly, db/db mice were anesthetized (Nembutal IP, 100 mg/kg), the portal vein was cannulated and tied off, and the liver was excised and perfused with a pre-oxygenated Krebs-bicarbonate buffered solution. The liver was then placed into a 20 mm NMR tube and the gluconeogenic substrate [2-^13C] pyruvate (10 mM) was added to the perfusate plus either MK-2305 (10 μM) or vehicle (0.1% DMSO). […] These NMR signals were then converted to absolute units (μmoles) by comparison to ^13C NMR spectra of standard solutions acquired under identical conditions. Additional correction factors were included for ^13C-glycogen and ^13C-glucose to account for the fact that position 2 in pyruvate can end up at position 1, 2, 5, or 6 in glucose/glycogen due to the fumarase and triose phosphate isomerase reactions. The slope of each signal versus time was then used to calculate the following fluxes: glucose production, glycogen synthesis, and lactate production.

[6] = tested on: diabetic humans; details: clinical trials; cited from earlier work
[7] = 10 mpk, following 20 days of treatment in the GK rat, individual animals

T1 sequence (Q8K3T4 whole entry): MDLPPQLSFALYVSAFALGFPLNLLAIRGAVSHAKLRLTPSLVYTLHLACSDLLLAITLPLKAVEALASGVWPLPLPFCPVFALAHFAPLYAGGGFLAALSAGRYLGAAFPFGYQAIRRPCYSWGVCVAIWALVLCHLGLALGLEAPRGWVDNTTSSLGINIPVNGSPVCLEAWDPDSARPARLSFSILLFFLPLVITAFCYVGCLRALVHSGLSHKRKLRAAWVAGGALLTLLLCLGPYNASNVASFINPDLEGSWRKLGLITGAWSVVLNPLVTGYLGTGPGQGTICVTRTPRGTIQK

COc1ccc(F)c(-c2ccc(COc3cccc([C@@H](CC(=O)O)C4CC4)c3)cc2C2=CCCC2(C)C)c1 [AM1638, reference compound]
Receptor Activation (%) ([1]; Concentration 1e-6 M): 370% | Receptor Activation (%) ([1]; Concentration 1.50E-11 M): -18% | Receptor Activation (%) ([1]; Concentration 1.56E-08 M): 132% | Receptor Activation (%) ([1]; Concentration 2.44E-10 M): 11% | Receptor Activation (%) ([1]; Concentration 2.50E-07 M): 361% | Receptor Activation (%) ([1]; Concentration 3.91E-09 M): 23% | Receptor Activation (%) ([1]; Concentration 4.00E-12 M): -6% | Receptor Activation (%) ([1]; Concentration 6.10E-11 M): 2% | Receptor Activation (%) ([1]; Concentration 6.25E-08 M): 275% | Receptor Activation (%) ([1]; Concentration 9.77E-10 M): 18%

CN(CCOc1ccc(CC2SC(=O)NC2=O)cc1)c1ccccn1 (stereo not shown) [Rosiglitazone, reference compound]
Fasted blood glucose [2]: 109 mg/dL and 132 mg/dL and 121 mg/dL and 119 mg/dL and 134 mg/dL and 110 mg/dL and 115 mg/dL and 116 mg/dL | effect on body weight ([3]; 10 mg/kg in feed, GK rats): steady increase in body weight | effect on food intake ([3]; 10 mg/kg in feed, GK rats): significant and consistent increase in food consumption beginning on day 3 | % HBA1c [3, 7]: 4.4% and 4.2% and 4.3% and 4.7% | Liver Triglycerides [3, 7]: 5.5 mg/g tissue and 8.7 mg/g tissue and 7.2 mg/g tissue and 5 mg/g tissue and 3.9 mg/g tissue and 6.1 mg/g tissue and 3.1 mg/g tissue | Fasted plasma insulin ([3]; Day 7, 10mpk, individual animals, 10 mg/kg): 64.4 pg/mL and 7.9 pg/mL and 28.0 pg/mL and 0.0 pg/mL and 126.7 pg/mL and 13.3 pg/mL and 40.2 pg/mL and 147.0 pg/mL and 54.7 pg/mL | Fasted plasma insulin ([3]; Day 14, 10mpk, individual animals, 10 mg/kg): 82.7 pg/mL and 67.8 pg/mL and 78.9 pg/mL and 214.4 pg/mL and 804.3 pg/mL and 809.3 pg/mL and 0.0 pg/mL and 890.8 pg/mL and 292.0 pg/mL | Morning (fed) Blood Glucose ([3]; Day 0 (start of study), individual GK rats): 195 mg/dL and 181 mg/dL and 219 mg/dL and 203 mg/dL and 204 mg/dL and 243 mg/dL and 186 mg/dL and 233 mg/dL and 191 mg/dL and 282 mg/dL | Morning (fed) Blood Glucose ([3]; Day 1, individual GK rats): 211 mg/dL and 175 mg/dL and 218 mg/dL and 246 mg/dL and 213 mg/dL and 240 mg/dL and 207 mg/dL and 205 mg/dL and 198 mg/dL and 275 mg/dL | Morning (fed) Blood Glucose ([3]; Day 3, individual GK rats): 129 mg/dL and 177 mg/dL and 163 mg/dL and 175 mg/dL and 172 mg/dL and 174 mg/dL and 242 mg/dL | Morning (fed) Blood Glucose ([3]; Day 7, individual GK rats): 135 mg/dL and 125 mg/dL and 137 mg/dL and 118 mg/dL and 123 mg/dL | Morning (fed) Blood Glucose ([3]; Day 14, individual GK rats): 133 mg/dL and 134 mg/dL and 121 mg/dL and 132 mg/dL | Morning (fed) Blood Glucose ([3]; Day 20, individual GK rats): 126 mg/dL and 133 mg/dL and 128 mg/dL and 129 mg/dL and 127 mg/dL and 123 mg/dL | NEFA (mEq/L) ([3]; Rosi @ 10, 20 days of treatment, individual GK rats): 0.32 mEq/L and 0.33 mEq/L and 0.35 mEq/L and 0.75 mEq/L and 0.49 mEq/L and 0.54 mEq/L and 0.48 mEq/L and 0.39 mEq/L and 0.65 mEq/L | decrease in fed glucose vs. vehicle ([3]; day 3, 10 mg/kg in feed, GK rats, p < 0.05): 22% | reduction in fasting blood glucose vs. vehicle ([3]; day 7, 5 hr fast, 10 mg/kg in feed, GK rats): 16% | reduction in fasting blood glucose vs. vehicle ([3]; day 14, 5 hr fast, 10 mg/kg in feed, GK rats): 19% | plasma NEFA ([3]; day 20, 10 mg/kg in feed, GK rats, mean ± SEM, vehicle 0.37 ± 0.03, not significant): 0.48 ± 0.05 mEq/L | effect on circulating HbA1C levels ([3]; day 20, GK rats, all treatment groups): significantly reduced | effect on liver triglyceride levels ([3]; day 20, GK rats, vs. vehicle controls): significant decrease | effect on fasted plasma insulin ([3]; days 7 and 14, 5 hr fast, GK rats): no significant effects | Fasted blood glucose ([3]; second block of the table (day 14 per title), 10mpk, individual animals, 10 mg/kg): 124 mg/dl and 131 mg/dl (2×) and 114 mg/dl and 133 mg/dl and 134 mg/dl | plasma exposure ([4]; day 14, fasted time point): ~0.7 µM | plasma exposure ([4]; day 14, fed time point): ~ 3 μM

O=C(O)c1ncccc1S [3-MPA, reference compound]
effect on gluconeogenesis in the perfused liver [5]: marked acute reductions

Cc1cc(OCCCS(C)(=O)=O)cc(C)c1-c1cccc(COc2ccc3c(c2)OC[C@H]3CC(=O)O)c1 [TAK-875, Fasiglifam]
effect on oral glucose tolerance, fasted plasma glucose, and hemoglobin HbA1C [6]: significant reductions

CCOC(=O)[C@H](C)NP(=O)(N[C@@H](C)C(=O)OCC)c1ccc(-c2nc(N)sc2CC(C)C)o1 [CS917, reference compound]
effect on gluconeogenesis in the perfused liver [5]: marked acute reductions
